Results reported in ChEMBL document CHEMBL1201862, “PubChem BioAssay data set” (2004).
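Protocol summary: plate cells (96-well), add compound at 5 concentrations, incubate 48 h, interpolate endpoints linearly. GI50 is the concentration that inhibits growth by half.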 The source made the active and inactive calls. Cut-off read from the data, not from the text of the source: active = GI50 up to about 1.1 µM and inactive = higher.

Key:
Assay in all cases: inhibition of tumour cell growth, NCI panel, 48 h
DLD-1 = tested on: DLD-1
DMS-114 = tested on: DMS-114
DMS-273 = tested on: DMS-273
HOP-18 = tested on: HOP-18
KM-20L2 = tested on: KM-20L2
M19-MEL = tested on: M19-MEL
XF498 = tested on: XF498
LXFL 529 = tested on: LXFL 529
RXF 631 = tested on: RXF 631

Measured: GI50

CC(=O)Oc1ccc(C2COc3cc(OC(C)=O)c(OC(C)=O)cc3C2)cc1 (centres undefined)
inactive: DLD-1 17.9 µM | DMS-114 4.44 µM | DMS-273 21.9 µM | HOP-18 12.8 µM | KM-20L2 37.2 µM | M19-MEL 12.9 µM | XF498 12.2 µM

ClCCCN1CCCCC1CCl (centres undefined)
inactive: DLD-1 > 100 µM | DMS-114 83 µM | DMS-273 62.2 µM | HOP-18 > 100 µM | KM-20L2 > 100 µM | LXFL 529 > 100 µM | M19-MEL > 100 µM

O[C@]12c3ccccc3C1CCCCC2N1CCOCC1 (some centres undefined)
inactive: DMS-114 > 100 µM | DMS-273 > 100 µM | HOP-18 > 100 µM | KM-20L2 > 100 µM | LXFL 529 > 100 µM | M19-MEL > 100 µM | XF498 > 100 µM

COC(=O)C1CC2(CC3=C1CCCC3)OCCO2 (centres undefined)
inactive: DLD-1 > 100 µM | DMS-114 > 100 µM | DMS-273 > 100 µM | LXFL 529 > 100 µM | M19-MEL > 100 µM | RXF 631 > 100 µM | XF498 > 100 µM

C/C(=C\c1ccccc1)C(=O)CCN1CCOCC1
inactive: DLD-1 17.3 µM | DMS-114 18.7 µM | DMS-273 19.7 µM | HOP-18 18.3 µM | KM-20L2 19.5 µM | M19-MEL 17.2 µM | XF498 18.3 µM

CC1=N/C(=C\c2ccc([N+](=O)[O-])cc2)C(=O)O1
inactive: DLD-1 > 100 µM | DMS-114 > 100 µM | HOP-18 > 100 µM | KM-20L2 > 100 µM | LXFL 529 > 100 µM | M19-MEL > 100 µM | RXF 631 > 100 µM

CCOC(=O)C1=C(c2ccccc2)N(C(C)=O)Cc2ccccc21
inactive: DLD-1 28.7 µM | DMS-114 10.4 µM | DMS-273 15.1 µM | HOP-18 28.1 µM | KM-20L2 21.6 µM | LXFL 529 22.5 µM | M19-MEL 18.8 µM | XF498 11.9 µM

COC1=C(OC)C(=O)c2cc(SC)c(=O)c(SC)cc2C1=O
inactive: DLD-1 28.4 µM | DMS-114 3.4 µM | DMS-273 25.5 µM | HOP-18 20.2 µM | KM-20L2 > 100 µM | LXFL 529 15.8 µM | XF498 5.14 µM

COc1ccc(C(O)/C(=N\NC(N)=S)c2nc3ccc([N+](=O)[O-])cc3nc2O)cc1OC (centres undefined)
inactive: DLD-1 > 100 µM | DMS-114 53.1 µM | DMS-273 > 100 µM | HOP-18 44.2 µM | KM-20L2 > 100 µM | LXFL 529 > 100 µM | M19-MEL > 100 µM | RXF 631 > 100 µM | XF498 > 100 µM

NC1c2ccccc2Nc2ccccc21
inactive: DLD-1 3.8 µM | DMS-114 3.24 µM | DMS-273 4.52 µM | HOP-18 8.81 µM | KM-20L2 3.76 µM | LXFL 529 4.94 µM | M19-MEL 3.36 µM | XF498 3.16 µM
